Assays:
[1] = test system: Human ovarian carcinoma A2780 cells; assay: MTT cytotoxicity test, A2780 cells; type: cell-based; settings: 6 h treatment
Description: (§1) Human lung carcinoma A549 cells (American Type Culture Collection, ATCC), and cisplatin-resistant A549cisR cells (American Type Culture Collection, ATCC) are cultured in DMEM with 10% FBS and 100 µg/mL penicillin/streptomycin. Human ovarian carcinoma A2780 and cisplatin-resistant A2780cisR cells are cultured in RPMI-1640 with 10% FBS, 1% L-Glutamine, and 100 µg/mL penicillin/streptomycin. Human lung fibroblast MRC-5 cells (American Type Culture Collection, ATCC) are cultured in MEM with 10% FBS, 1% NEAA, 1% L-Glutamine, 1% sodium pyruvate, and 100 µg/mL penicillin/streptomycin. For A2780cisR and A549cisR cells, 2 μM of cisplatin is added into the culture medium after the attachment to maintain the resistance. All the cells are cultured at 37° C. in 5% CO2.
(§2) The cytotoxic profiles of the various complexes against selected cell lines are obtained by a 3-(4,5-Dimethylthiazol-2-yl)-2,5-diphenyltetrazolium bromide (MTT) assay. Cells are seeded into 96-well plates at a density of 2,500 cells per well (for A549, and A2780) or 5,000 cells per well (for A549cisR, A2780cisR, and MRC-5) and incubated for 24 h. Cells are then treated with medium containing various concentrations of complexes for 6 h. The medium is replaced by phenol-red free medium. Then cells are irradiated with near-infrared radiation (880 nm, 0.4 W/cm^2) for 80 min. After irradiation, cells are further incubated in fresh medium for 18 h at 37° C. Then, the culture medium is removed, cells are then incubated with FBS free medium containing 1 mg/mL MTT for 2 h. Medium containing MTT is removed and 150 μL DMSO is added to each well. The absorbance is measured at 570 and 630 nm. […]

[2] = test system: Human lung fibroblast MRC-5 cells; assay: MTT cytotoxicity test, MRC-5 cells; type: cell-based; settings: in the dark with no irradiation, 6 h treatment
Description: as §1
The cytotoxic profiles of the various complexes against selected cell lines are obtained by a 3-(4,5-Dimethylthiazol-2-yl)-2,5-diphenyltetrazolium bromide (MTT) assay. Cells are seeded into 96-well plates at a density of 2,500 cells per well (for A549, and A2780) or 5,000 cells per well (for A549cisR, A2780cisR, and MRC-5) and incubated for 24 h. Cells are then treated with medium containing various concentrations of complexes for 6 h. The medium is replaced by phenol-red free medium. Then cells are irradiated with near-infrared radiation (880 nm, 0.4 W/cm^2) for 80 min. After irradiation, cells are further incubated in fresh medium for 18 h at 37° C. Then, the culture medium is removed, cells are then incubated with FBS free medium containing 1 mg/mL MTT for 2 h. Medium containing MTT is removed and 150 μL DMSO is added to each well. The absorbance is measured at 570 and 630 nm.
Cells are treated with the indicated complex for 6 h, the culture medium is replaced with fresh medium and irradiated with or without blue light for 1 h. Then cells are cultured for another 42 h.

[3] = test system: cisplatin-resistant A2780cisR cells; assay: MTT cytotoxicity test, A2780cisR cells; type: cell-based, Human; settings: 6 h treatment
Description: as §1, §2

[4] = test system: Human lung carcinoma A549 cells; assay: MTT cytotoxicity test, A549 cells; type: cell-based; settings: 6 h treatment
Description: as §1, §2

[5] = test system: cisplatin-resistant A549cisR cells; assay: MTT cytotoxicity test, A549cisR cells; type: cell-based, Human; settings: 6 h treatment
Description: as §1, §2

[6] = in the dark with no irradiation
[7] = mark * (dark), position of the irradiated row
[8] = A2780cisR*, in the dark with no irradiation
[9] = A549*, in the dark with no irradiation
[10] = A549cisR*, in the dark with no irradiation

What does the source list for O=C1[O][Pt]2([NH][C@@H]3CCCC[C@H]3[NH]2)[O]C1=O [Oxaliplatin, reference compound]?
IC50 [1, 6]: 86.5 ± 7.7 µM; IC50 [1, 7]: 73.7 ± 5.9 µM; IC50 [2]: 213 ± 16.4 µM; IC50 ([3]; A2780cisR**, with irradiation): 254 ± 18.2 µM; IC50 [3, 8]: 250 ± 12.6 µM; IC50 ([4]; A549**, with irradiation): 104 ± 8.2 µM; IC50 [4, 9]: 97.2 ± 7.5 µM; IC50 ([5]; A549cisR**, with irradiation): 269 ± 16.3 µM; IC50 [5, 10]: 258 ± 11.6 µM

For N.N.O=C([O-])C1(C(=O)[O-])CCC1.[Pt+2] [Carboplatin, reference compound], which IC50 [1, 6] is on record?
Its IC50 is 303 ± 34.8 µM.

And the IC50 [1, 7]?
Its IC50 is 336 ± 43.8 µM.

And the IC50 [2]?
The IC50 was 690 ± 38.5 µM.

And the IC50 ([3]; A2780cisR**, with irradiation)?
The IC50 was 630 ± 43.2 µM.

And the IC50 [3, 8]?
The IC50 was 668 ± 51.1 µM.

And the IC50 ([4]; A549**, with irradiation)?
The IC50 was 435 ± 42.9 µM.

What about the IC50 [4, 9] of the same compound?
The IC50 was 418 ± 33.6 µM.

What about the IC50 ([5]; A549cisR**, with irradiation) of the same compound?
Its IC50 is over 700 µM.

And the IC50 [5, 10]?
The IC50 was over 700 µM.

Which IC50 [1, 6] does the source give for CCN(CC)c1ccc2cc(C(=O)/C=C/c3ccc(N(C)CCC(=O)[O][Pt]4([NH2])([NH2])([OH])[O]C(=O)C5(CCC5)C(=O)[O]4)cc3)c(=O)oc2c1 [Complex 4] here?
Its IC50 is over 50 µM.

What about the IC50 [1, 7] of the same compound?
The IC50 was 10.7 ± 2.2 µM.

And the IC50 [2]?
Its IC50 is over 50 µM.

What about the IC50 ([3]; A2780cisR**, with irradiation) of the same compound?
Its IC50 is 11.2 ± 2.8 µM.

And the IC50 [3, 8]?
The IC50 was over 50 µM.

What about the IC50 ([4]; A549**, with irradiation) of the same compound?
The IC50 was 17.7 ± 5.1 µM.

And the IC50 [4, 9]?
The IC50 was over 50 µM.

What about the IC50 ([5]; A549cisR**, with irradiation) of the same compound?
Its IC50 is 18.9 ± 4.3 µM.

And the IC50 [5, 10]?
Its IC50 is over 50 µM.

What does the source list for CCN(CC)c1ccc2cc(C(=O)/C=C/c3ccc(N(C)CCC(=O)[O][Pt]4([NH2])([NH2])([O]C(=O)Cc5cccc6c(=O)c7ccc(C)c(C)c7oc56)[O]C(=O)C5(CCC5)C(=O)[O]4)cc3)c(=O)oc2c1 [Complex 6]?
IC50 [1, 6]: > 50 µM; IC50 [1, 7]: 11.4 ± 1.5 µM; IC50 [2]: > 50 µM; IC50 ([3]; A2780cisR**, with irradiation): 12.7 ± 1.9 µM; IC50 [3, 8]: > 50 µM; IC50 ([4]; A549**, with irradiation): 11.6 ± 1.2 µM; IC50 [4, 9]: > 50 µM; IC50 ([5]; A549cisR**, with irradiation): 12.6 ± 2.1 µM; IC50 [5, 10]: > 50 µM

From patent US12617812B2, “Platinum(IV) complexes, methods of manufacture, compositions containing, and methods of use thereof” (City University of Hong Kong, priority 2021, dated 2026)
